Results taken from ChEMBL document CHEMBL3045988, “Computational and thermodynamic analyses of the phospholipase A2 inhibition by erucic acid and linoleic acid” (Med Chem Res, 2013).

Molecular target: Phospholipase A2 (Sus scrofa) (UniProt P00592+P04416)
Assay: Binding affinity to Sus scrofa (pig) PLA2 isolated from pancreas by isothermal titration calorimetric analysis
Format: protein assay

Chain of Phospholipase A2 (Sus scrofa) (P00592 whole entry, looked up): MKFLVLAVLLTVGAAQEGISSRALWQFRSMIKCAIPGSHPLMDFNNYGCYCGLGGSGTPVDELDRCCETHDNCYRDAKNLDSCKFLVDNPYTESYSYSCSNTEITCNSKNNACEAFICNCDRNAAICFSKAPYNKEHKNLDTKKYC
Chain of Phospholipase A2 (Sus scrofa) (P04416 whole entry, looked up): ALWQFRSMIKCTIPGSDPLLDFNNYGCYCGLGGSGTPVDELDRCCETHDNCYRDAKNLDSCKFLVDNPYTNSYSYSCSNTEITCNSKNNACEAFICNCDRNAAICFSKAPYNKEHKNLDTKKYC

Structure (SMILES)	K
CCCCCCCC/C=C\CCCCCCCCCCCC(=O)O	23.3 ×10⁴ /M
CCCCC/C=C\C/C=C\CCCCCCCC(=O)O	1.15 ×10⁴ /M
